Reference: PubChem BioAssay AID258 (DTP/NCI, 2004)
“And” between values parts separate entries of the source, which are not always exact repeats. Identical values can stand only once. Inconclusive results and toxic doses are left out. How the source made its calls: active means survival T/C of 150% or more; inactive means T/C below 125% in these data.

System: CD2F1 mice, L1210 leukemia sc, survival T/C
Experiment: NCI In Vivo Anticancer Drug Screen. Data for tumor model L1210 Leukemia (subcutaneous) in CD2F1 (CDF1) mice
Conditions: endpoint: median survival time, higher = longer survival
Method in brief: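 Compound given to mice bearing transplantable tumor. Survival or tumor size then recorded. Result expressed relative to vehicle-dosed control group as T/C.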

[1] = dose: 39.0 mg/kg/injection, schedule: Q01DX Z (sc), vehicle: water
[2] = dose: 65.0 mg/kg/injection, schedule: Q01DX Z (sc), vehicle: water
[3] = dose: 8.4 mg/kg/injection, schedule: Q01DX Z (sc), vehicle: water
[4] = dose: 14.0 mg/kg/injection, schedule: Q01DX Z (sc), vehicle: water
[5] = dose: 23.0 mg/kg/injection, schedule: Q01DX Z (sc), vehicle: water

Measured: T/C

CC1CCC(NC(=O)N(CCCl)N=O)CC1 (centres undefined)
inactive: dose: 0.25 mg/kg/injection, schedule: Q01DX009 (ip), vehicle: saline + alcohol 96 % of control | dose: 0.5 mg/kg/injection, schedule: Q01DX009 (ip), vehicle: saline + alcohol 112 % of control | dose: 1.0 mg/kg/injection, schedule: Q01DX009 (ip), vehicle: saline + alcohol 122 % of control | dose: 4.0 mg/kg/injection, schedule: Q01DX009 (sc), vehicle: saline + alcohol 107 % of control | dose: 24.0 mg/kg/injection, schedule: Q01DX009 (sc), vehicle: saline + alcohol 123 % of control | dose: 48.0 mg/kg/injection, schedule: Q01DX009 (ip), vehicle: saline + alcohol 90 % of control | dose: 64.0 mg/kg/injection, schedule: Q01DX009 (sc), vehicle: saline + alcohol 122 % of control | dose: 256.0 mg/kg/injection, schedule: Q01DX009 (sc), vehicle: saline + alcohol 120 % of control
120 % of control and 246 % of control: dose: 8.0 mg/kg/injection, schedule: Q01DX009 (sc), vehicle: saline + alcohol
active: dose: 4.0 mg/kg/injection, schedule: Q01DX009 (ip), vehicle: saline + alcohol 153 % of control and 239 % of control | dose: 5.3 mg/kg/injection, schedule: Q01DX009 (sc), vehicle: saline + alcohol 225 % of control | dose: 8.0 mg/kg/injection, schedule: Q01DX009 (ip), vehicle: saline + alcohol 163 % of control and 267 % of control | dose: 10.7 mg/kg/injection, schedule: Q01DX009 (ip), vehicle: saline + alcohol 745 % of control | dose: 12.0 mg/kg/injection, schedule: Q01DX009 (sc), vehicle: saline + alcohol 250 % of control | dose: 16.0 mg/kg/injection, schedule: Q01DX009 (ip), vehicle: saline + alcohol 200 % of control and 230 % of control | dose: 16.0 mg/kg/injection, schedule: Q01DX009 (sc), vehicle: saline + alcohol 198 % of control and 209 % of control | dose: 21.4 mg/kg/injection, schedule: Q01DX009 (sc), vehicle: saline + alcohol 400 % of control | dose: 24.0 mg/kg/injection, schedule: Q01DX009 (ip), vehicle: saline + alcohol 153 % of control | dose: 32.0 mg/kg/injection, schedule: Q01DX009 (sc), vehicle: saline + alcohol 162 % of control and 203 % of control | dose: 48.0 mg/kg/injection, schedule: Q01DX009 (sc), vehicle: saline + alcohol 189 % of control | dose: 64.0 mg/kg/injection, schedule: Q01DX009 (ip), vehicle: saline + alcohol 150 % of control

CCN(CC)c1ccc(/C=C/c2ccnc3ccccc23)cc1
inactive: [1] 100 % of control | [2] 100 % of control | dose: 108.0 mg/kg/injection, schedule: Q01DX Z (sc), vehicle: water 100 % of control | dose: 180.0 mg/kg/injection, schedule: Q01DX Z (sc), vehicle: water 100 % of control | dose: 300.0 mg/kg/injection, schedule: Q01DX Z (sc), vehicle: water 100 % of control | dose: 500.0 mg/kg/injection, schedule: Q01DX Z (sc), vehicle: water 100 % of control

Cc1ccc(C(=O)Nc2ccc(S(=O)(=O)O)c3cc(S(=O)(=O)O)cc(S(=O)(=O)O)c23)cc1NC(=O)c1cccc(NC(=O)Nc2cccc(C(=O)Nc3cc(C(=O)Nc4ccc(S(=O)(=O)O)c5cc(S(=O)(=O)O)cc(S(=O)(=O)O)c45)ccc3C)c2)c1
inactive: dose: 10.0 mg/kg/injection, schedule: Q07DX003 (iv), vehicle: water 97 % of control | dose: 20.0 mg/kg/injection, schedule: Q07DX003 (iv), vehicle: water 96 % of control | dose: 40.0 mg/kg/injection, schedule: Q07DX003 (iv), vehicle: water 100 % of control

COc1cc([C@@H]2c3cc4c(cc3[C@H](OC(C)=O)[C@H]3COC(=O)[C@@H]23)OCO4)cc(OC)c1OC
inactive: dose: 500.0 mg/kg/injection, schedule: Q01DX Z (sc), vehicle: methylcellulose (MC) 100 % of control

CC(=O)NNC(=O)c1ccccn1
inactive: dose: 12.5 mg/kg/injection, schedule: Q01DX009 (ip), vehicle: Klucel (hydroxypropylcellulose) (HPC) 102 % of control | dose: 25.0 mg/kg/injection, schedule: Q01DX009 (ip), vehicle: Klucel (hydroxypropylcellulose) (HPC) 102 % of control | dose: 25.0 mg/kg/injection, schedule: Q01DX009 (ip), vehicle: saline 102 % of control | dose: 25.0 mg/kg/injection, schedule: Q01DX009 (sc), vehicle: saline 98 % of control | dose: 50.0 mg/kg/injection, schedule: Q01DX009 (ip), vehicle: Klucel (hydroxypropylcellulose) (HPC) 105 % of control | dose: 50.0 mg/kg/injection, schedule: Q01DX009 (ip), vehicle: saline 104 % of control | dose: 50.0 mg/kg/injection, schedule: Q01DX009 (sc), vehicle: saline 105 % of control and 109 % of control | dose: 100.0 mg/kg/injection, schedule: Q01DX009 (ip), vehicle: Klucel (hydroxypropylcellulose) (HPC) 113 % of control | dose: 100.0 mg/kg/injection, schedule: Q01DX009 (ip), vehicle: saline 106 % of control | dose: 100.0 mg/kg/injection, schedule: Q01DX009 (sc), vehicle: saline 110 % of control and 113 % of control | dose: 200.0 mg/kg/injection, schedule: Q01DX009 (ip), vehicle: Klucel (hydroxypropylcellulose) (HPC) 112 % of control | dose: 200.0 mg/kg/injection, schedule: Q01DX009 (ip), vehicle: saline 114 % of control | dose: 200.0 mg/kg/injection, schedule: Q01DX009 (sc), vehicle: saline 111 % of control and 119 % of control

O=C(Nc1ccc(NC2=NCCN2)cc1)c1cccc(C(=O)Nc2ccc(NC3=NCCN3)cc2)c1
inactive: [3] 110 % of control | [4] 100 % of control | [5] 105 % of control | [1] 110 % of control

Nc1cc(C(=O)Nc2ccc(C3=NCCN3)cc2)ccc1C(=O)Nc1ccc(C2=NCCN2)cc1
inactive: dose: 3.0 mg/kg/injection, schedule: Q01DX Z (sc), vehicle: methylcellulose (MC) 111 % of control | dose: 3.0 mg/kg/injection, schedule: Q01DX Z (sc), vehicle: water 116 % of control
active: dose: 5.0 mg/kg/injection, schedule: Q01DX Z (sc), vehicle: methylcellulose (MC) 200 % of control | dose: 5.0 mg/kg/injection, schedule: Q01DX Z (sc), vehicle: water 266 % of control | dose: 8.4 mg/kg/injection, schedule: Q01DX Z (sc), vehicle: methylcellulose (MC) 255 % of control | [3] 294 % of control | dose: 14.0 mg/kg/injection, schedule: Q01DX Z (sc), vehicle: methylcellulose (MC) 200 % of control | [4] 266 % of control | dose: 23.0 mg/kg/injection, schedule: Q01DX Z (sc), vehicle: methylcellulose (MC) 161 % of control | [5] 288 % of control | dose: 39.0 mg/kg/injection, schedule: Q01DX Z (sc), vehicle: methylcellulose (MC) 155 % of control | [1] 211 % of control | dose: 65.0 mg/kg/injection, schedule: Q01DX Z (sc), vehicle: methylcellulose (MC) 155 % of control | [2] 200 % of control

O=NN(CCCl)C(=O)NC12CC3CC(CC(C3)C1)C2
inactive: dose: 6.25 mg/kg/injection, schedule: Q01DX Z (sc), vehicle: carboxymethylcellulose (CMC) 100 % of control | dose: 12.5 mg/kg/injection, schedule: Q01DX Z (sc), vehicle: carboxymethylcellulose (CMC) 100 % of control | dose: 25.0 mg/kg/injection, schedule: Q01DX Z (sc), vehicle: carboxymethylcellulose (CMC) 110 % of control
active: dose: 50.0 mg/kg/injection, schedule: Q01DX Z (sc), vehicle: carboxymethylcellulose (CMC) 325 % of control | dose: 100.0 mg/kg/injection, schedule: Q01DX Z (sc), vehicle: carboxymethylcellulose (CMC) 240 % of control

COC1=C(N)C(=O)c2nc(-c3nc(C(=O)O)c(C)c(-c4ccc(OC)c(OC)c4O)c3N)ccc2C1=O
inactive: dose: 0.13 mg/kg/injection, schedule: Q01DX Z (sc), vehicle: water 110 % of control | dose: 0.22 mg/kg/injection, schedule: Q01DX Z (sc), vehicle: water 110 % of control | dose: 0.36 mg/kg/injection, schedule: Q01DX Z (sc), vehicle: water 110 % of control | dose: 0.6 mg/kg/injection, schedule: Q01DX Z (sc), vehicle: water 105 % of control | dose: 1.0 mg/kg/injection, schedule: Q01DX Z (sc), vehicle: water 110 % of control

O=C(Nc1cccnc1)c1ccc([N+](=O)[O-])s1
inactive: dose: 25.0 mg/kg/injection, schedule: Q01DX005 (ip), vehicle: saline 108 % of control | dose: 50.0 mg/kg/injection, schedule: Q01DX005 (ip), vehicle: saline 102 % of control | dose: 100.0 mg/kg/injection, schedule: Q01DX005 (ip), vehicle: saline 111 % of control

CC(C)(C)N1CC1CNC(=O)C(=O)NCC1CN1C(C)(C)C (centres undefined)
active: dose: 12.5 mg/kg/injection, schedule: Q01DX009 (ip), vehicle: saline with Tween-80 157 % of control
inactive: dose: 3.13 mg/kg/injection, schedule: Q01DX009 (ip), vehicle: saline with Tween-80 107 % of control and 108 % of control | dose: 6.25 mg/kg/injection, schedule: Q01DX009 (ip), vehicle: saline with Tween-80 122 % of control | dose: 25.0 mg/kg/injection, schedule: Q01DX009 (ip), vehicle: saline with Tween-80 86 % of control
